From paper PMC12499601 (Pulmonary pharmacology & therapeutics, 2024)
“And” between values parts separate entries of the source, which are not always exact repeats. Identical values can stand only once. Like-named read-outs stand apart in the source and are kept apart here.

Columns and labels:
[1] = format: in vivo, human; conditions: capillary plasma, pwCF, ivacaftor 150mg twice daily steady state, n = 8; for Cmax / half-life: human, oral, 150 mg
Metabolite:parent ratio = format: in vivo, human; conditions: capillary plasma, metabolite:Iva, 12 hour dosing interval
[2] = system: human nasal epithelial cells; assay: Capillary plasma versus nasal epithelial cell concentrations; format: in vivo; conditions: nasal epithelial cell lysate of participants taking ivacaftor
16HBE cells = assay: Uptake of metabolites into 16HBE cells at ALI, LC-MS/MS of cellular lysate; format: in vitro ADME, human; conditions: for mean concentration detected in the cells: 16HBE at ALI, 1000nM of the compound in basolateral media, 48 hours; for crossing of the plasma membrane of airway epithelial cells: 16HBE in vitro model
HNEs, HBEs, and CFBEs = format: in vitro ADME, human; conditions: ALI cultures, 1000nM of Iva basolateral, 48 hours; for metabolite detected in apical or basolateral media: media prior to cell lysis (data not shown)
[3] = pwCF; cited from earlier work
CFTR = conditions: cited from earlier work
nasal brushings lysate = conditions: pwCF; cited from earlier work
CYP3A4 = conditions: in vitro; cited from earlier work
[4] = format: in vivo, human; conditions: plasma of a participant taking ivacaftor
5-HT2C receptor = conditions: cited from earlier work
β3-adrenergic receptor = conditions: cited from earlier work
δ-opioid receptor = conditions: cited from earlier work
dopamine transporter = conditions: cited from earlier work

**Q.** With `CC(C)(C)c1cc(C(C)(C)C(=O)O)c(O)cc1NC(=O)c1c[nH]c2ccccc2c1=O` [M6-Iva, ivacaftor carboxylate] as the compound, how does the “Cavg, Mean (SD)” value [1] read?
**A.** 797 (430) ng/mL

**Q.** And the “Cavg, Median (min, max)” value [1]?
**A.** 842 (231, 1418) ng/mL

**Q.** And the “Cmax, Mean (SD)” value [1]?
**A.** 927 (456) ng/mL

**Q.** What about the “Cmax, Median (min, max)” value [1] of the same compound?
**A.** 918 (265, 1630) ng/mL

**Q.** And the “Cmin, Mean (SD)” value [1]?
**A.** 522 (365) ng/mL

**Q.** What about the “Cmin, Median (min, max)” value [1] of the same compound?
**A.** 527 (5.8, 1070) ng/mL

**Q.** What about the “T1/2, Mean (SD)” value [1] of the same compound?
**A.** 8.8 (6.6) h

**Q.** And the “T1/2, Median (min, max)” value [1]?
**A.** 8.8 (4.2, 13.5) h

**Q.** What about the “Tmax, Mean (SD)” value [1] of the same compound?
**A.** 6.9 (3.7) h

**Q.** And the “Tmax, Median (min, max)” value [1]?
**A.** 8 (4, 10) h

**Q.** What about the “mean metabolite:parent ratio (MPR)” value (Metabolite:parent ratio) of the same compound?
**A.** 1.6

**Q.** What about the “detection in cellular samples” value [2] of the same compound?
**A.** found only in one cellular sample

**Q.** And the “mean concentration detected in the cells” value (16HBE cells)?
**A.** 15 ng/ml and 0.04 μM

**Q.** What about the “crossing of the plasma membrane of airway epithelial cells” value (16HBE cells) of the same compound?
**A.** does not readily cross the plasma membrane

**Q.** And the “average concentration in the cellular lysate” value (16HBE cells; 16HBE, 5000nM of the compound, 48 hours (data not shown))?
**A.** 81 ng/ml and 0.19 μM

**Q.** What about the “metabolite detected in cells treated with Iva” value (HNEs, HBEs, and CFBEs; cell lysate) of the same compound?
**A.** No M1-Iva and M6-Iva were detected

**Q.** What about the “metabolite detected in apical or basolateral media” value (HNEs, HBEs, and CFBEs) of the same compound?
**A.** no M1-Iva and M6-Iva were detected

**Q.** And the “Cavg, venous plasma” value [3]?
**A.** 3821 ng/mL

**Q.** What about the “activity relative to parent Iva” value (CFTR) of the same compound?
**A.** inactive metabolite

**Q.** And the “potentiation activity relative to that of Iva” value (CFTR)?
**A.** 1/50

**Q.** Which results are given for `CC(C)(C)c1cc(C(C)(C)CO)c(O)cc1NC(=O)c1c[nH]c2ccccc2c1=O` [M1-Iva, hydroxymethyl ivacaftor]?
**A.** Cavg, Mean (SD) [1]: 726 (365) ng/mL; Cavg, Median (min, max) [1]: 607 (256, 1170) ng/mL; Cmax, Mean (SD) [1]: 1036 (520) ng/mL; Cmax, Median (min, max) [1]: 913 (402, 1750) ng/mL; Cmin, Mean (SD) [1]: 501 (228) ng/mL; Cmin, Median (min, max) [1]: 475 (55, 839) ng/mL; T1/2, Mean (SD) [1]: 9.2 (4.29) h; T1/2, Median (min, max) [1]: 8.7 (3.35, 16.4) h; Tmax, Mean (SD) [1]: 5.3 (0.7) h; Tmax, Median (min, max) [1]: 5 (4, 6) h; mean metabolite:parent ratio (MPR) (Metabolite:parent ratio): 1.5; mean concentration detected in the cells (16HBE cells): 1000 ng/ml and 2.5 μM; crossing of the plasma membrane of airway epithelial cells (16HBE cells): readily enters the airway epithelial cells; metabolite detected in cells treated with Iva (HNEs, HBEs, and CFBEs; cell lysate): No M1-Iva and M6-Iva were detected; metabolite detected in apical or basolateral media (HNEs, HBEs, and CFBEs): no M1-Iva and M6-Iva were detected; Cavg, venous plasma [3]: 3156 ng/mL; mean concentration in nasal brushings lysate (nasal brushings lysate): 696 ng/mL; activity relative to parent Iva (CFTR): 1/6; potentiation activity relative to that of Iva (CFTR): 1/6; effect on CYP3A4 activity (CYP3A4): stronger inhibition

**Q.** With ivacaftor hydrate [Iva-hydrate] as the compound, how does the “detection in plasma (qualitative)” value [4] read?
**A.** small peaks

**Q.** Which results are given for `CC(C)(C)c1cc(C(C)(C)C)c(NC(=O)c2c[nH]c3ccccc3c2=O)cc1O` [Iva, ivacaftor]?
**A.** Cavg, Mean (SD) [1]: 532 (343) ng/mL; Cavg, Median (min, max) [1]: 416(221, 1206) ng/mL; Cmin, Mean (SD) [1]: 352 (245) ng/mL; Cmin, Median (min, max) [1]: 287 (113, 813) ng/mL; Tmax, Median (min, max) [1]: 5 (4, 6) h; Cmax ([1]; Mean (SD)): 744 ng/mL; Cmax ([1]; Median (min, max)): 552 ng/mL; half-life ([1]; T1/2, Mean (SD)): 7.9 h; half-life ([1]; T1/2, Median (min, max)): 6.7 h; parent compound detected in cells (HNEs, HBEs, and CFBEs; cell lysate): detected in all the cell types; affinity (5-HT2C receptor): significant affinity; affinity (β3-adrenergic receptor): significant affinity; affinity (δ-opioid receptor): significant affinity; affinity (dopamine transporter): significant affinity; effect on CYP3A4 activity (CYP3A4): reduce CYP3A4 activity
